Measurements taken from patent US10206937B2, “Boronic acid derivatives and therapeutic uses thereof” (Qpex Biopharma, Inc., priority 2014, dated 2019).

System: strains of Enterobacteriaceae producing various carbapenemases (class A, D and B; 104 strains)
Assay: Antibiotics potentiation by Compound 27 (MIC; meropenem, doripenem, ertapenem, cefepime)
Type: cell-based
Conditions: + 27 = with Compound 27 at fixed 4 μg/ml

Measured: MIC

C[C@@H](O)[C@H]1C(=O)N2C(C(=O)O)=C(S[C@@H]3CN[C@H](CNS(N)(=O)=O)C3)[C@H](C)[C@H]12 [D]
Z (MIC of greater than 10 μg/mL): strain KP1081 Klebsiella pneumoniae (NDM-1, TEM-1, SHV-11, CMY-6, CTX-M-15) | strain KP1084 Klebsiella pneumoniae (KPC-3, SHV-11, TEM-1) | strain KP1086 Klebsiella pneumoniae (OXA-48, CTX-M-15, TEM, SHV) | strain KP1087 Klebsiella pneumoniae (KPC-2, CTX-M-15, SHV-11, TEM-1) | strain KP1097 Klebsiella pneumonias (IMP-1) | strain KP1098 Klebsiella pneumoniae (IMP-26) | strain KP1104 Klebsiella pneumoniae (KPC TEM) | strain KP1159 Klebsiella pneumoniae (SHV-1(2b); CTX-M-15; IMP-4) | strain KP1160 Klebsiella pneumoniae (SHV-28(2be); CTX-M-15; IMP-26) | strain KP1161 Klebsiella pneumoniae (NDM-1) | strain KP1164 Klebsiella pneumoniae (SHV-12(2be); VIM-1) | strain KP1165 Klebsiella pneumoniae (SHV-11(2b); CTX-M-15; VIM-27) | strain KP1166 Klebsiella pneumoniae (SHV-5(2be); VIM-26) | strain KP1169 Klebsiella pneumoniae (SHV-11(2b); VIM-1) | strain KP1170 Klebsiella pneumoniae (SHV-11(2b); CTX-M-15; NDM-1) | strain KP1172 Klebsiella pneumoniae (SHV-31(2be); DHA-1; VIM-1) | strain KP1174 Klebsiella pneumoniae (CTX-M-14; IMP-1) | strain KP1175 Klebsiella pneumoniae (SHV-OSBL(2b); VIM-1) | strain KP1177 Klebsiella pneumoniae (SHV-OSBL(2b), TEM-OSBL(2b); CTX-M-15; NDM-1) | strain KP1178 Klebsiella pneumoniae (SHV-OSBL(2b;) TEM-OSBL(2b); CTX-M-15; NDM-1) | strain KP1179 Klebsiella pneumoniae (SHV-12(2be), TEM-OSBL(2b); CTX-M-15; NDM-7) | strain KP1183 Klebsiella pneumoniae (SHV-OSBL(2b), TEM-OSBL(2b); CTX-M-15; NDM-1) | strain KP1185 Klebsiella pneumoniae (SHV-OSBL(2b), TEM-OSBL(2b); IMP-4) | strain KP1186 Klebsiella pneumoniae (CTX-M-15; NDM-1) | strain KP1187 Klebsiella pneumoniae (SHV-55(2be), TEM-OSBL(2b); CTX-M-15; NDM-1) | strain KP1188 Klebsiella pneumoniae (SHV-OSBL(2b); CTX-M-15; NDM-1) | strain KP1189 Klebsiella pneumoniae (TEM-OSBL(2b); CTX-M-15; CTX-M-27; NDM-1) | strain KPM1345 Klebsiella pneumoniae (VIM-1 SHV) | strain KPM1347 Klebsiella pneumoniae (NDM-1 SHV CTX-M-15) | strain PM1024 Proteus mirabilis (TEM-1(2b); CMY-16; VIM-1) | strain PM1026 Proteus mirabilis (DHA-1; IMP-26) | strain SM1023 Serratia marcescens (VIM-4)
Y (MIC of 1 μg/mL to 10 μg/mL): strain KP1082 Klebsiella pneumoniae (KPC-2, SHV-1) | strain KP1083 Klebsiella pneumoniae (KPC-3, SHV-1, TEM-1) | strain KP1088 Klebsiella pneumoniae (KPC-3, SHV-11, TEM-1) | strain KP1089 Klebsiella pneumonias (OXA-181, CTX-M-15, TEM, SHV) | strain KP1095 Klebsiella pneumoniae (KPC-2 TEM-1 SHV-1) | strain KP1096 Klebsiella pneumoniae (KPC-2 TEM-181 SHV-11) | strain KP1105 Klebsiella pneumoniae (KPC TEM SHV) | strain KP1173 Klebsiella pneumoniae (TEM-33(2br); CTX-M-15; IMP-1) | strain KP1180 Klebsiella pneumoniae (SHV-OSBL(2b), TEM-OSBL(2b); CTX-M-15; DHA-1; IMP-26) | strain KP1181 Klebsiella pneumoniae (SHV-OSBL(2b); CTX-M-15; IMP-26) | strain KP1184 Klebsiella pneumoniae (SHV-OSBL(2b); IMP-1) | strain KPM1123 Klebsiella pneumoniae (KPC-2 TEM SHV) | strain KPM1202 Klebsiella pneumoniae (KPC SHV TEM) | strain KPM1203 Klebsiella pneumoniae (KPC SHV TEM) | strain KPM1344 Klebsiella pneumoniae (VIM-1) | strain KX1017 Klebsiella oxytoca (KPC-2, OXA-2, SHV-30) | strain KX1018 Klebsiella oxytoca (KPC-2, SHV-40, OXY-1) | strain KX1019 Klebsiella oxytoca (KPC-2, OXA-2) | strain PM1027 Proteus mirabilis (VIM-5)
X (MIC of less than 1 μg/mL): strain KP1167 Klebsiella pneumoniae (SHV-12(2be); VIM-1)
